Measurements: patent US20130164259A1, “1,4-S[…] DERIVATIVES AND METHODS OF USE THEREOF” (priority 2009, published 2013)

Target: T1, HCV NS5B polymerase (NS5BΔCT21) (Hepatitis C virus genotype 1b, UniProt Q9WMX2)
T1 construct: A soluble C-terminal 21-amino acid truncated NS5B enzyme form; polyhistidine (C); made in house; host or cells: Escherichia coli
Assay: HCV NS5B Polymerase Inhibition Assay
Format: biochemical, HCV-Con 1 isolate
From the text: A chemically synthesized 75-mer version, designated DCoH75, whose sequence matches the 3′-end of D-RNA, and DCoH75ddC, where the 3′-terminal cytidine of DCoH75 is replaced by dideoxycytidine, were used for assaying the NS5B enzyme activity as described in Ferrari et al., 12th International Symposium on HCV and Related Viruses, P-306 (2005). The sequence of the template RNA was: 5′-UGUGCCGGUCUUUCUGAACGGGAUAUAAACCUGGCCAGCUUCAUCGAACAAGUUGCCGUGUCUAUGACAUAGAUC-3′ (SEQ ID NO: 1). A soluble C-terminal 21-amino acid truncated NS5B enzyme form (NS5BΔCT21, from HCV-Con 1 isolate, genotype 1b, Genbank accession number AJ238799) was produced and purified from Escherichia coli as C-terminal polyhistidine-tagged fusion protein as described in Ferrari et al., J. Virol. 73:1649-1654 (1999). A typical assay contained 20 mM Hepes pH 7.3, 10 mM MgCl2, 60 mM NaCl, 100 μg/ml BSA, 20 units/ml RNasin, 7.5 mM DTT, 0.1 μM ATP/GTP/UTP, 0.026 μM CTP, 0.25 mM GAU, 0.03 μM RNA template, 20 μCi/ml [^33P]-CTP, 2% DMSO, and 30 or 150 nM NS5B enzyme. Reactions were incubated at 22° C. for 2 hours, then stopped by adding 150 mM EDTA, washed in DE81 filter plate in 0.5M di-basic sodium phosphate buffer, pH 7.0, and counted using Packard TopCount after the addition of scintillation cocktail. Polynucleotide synthesis was monitored by the incorporation of radiolabeled CTP. The effect of the Compounds of Formula (I) on the polymerase activity was evaluated by adding various concentrations of a Compound of Formula (I), typically in 10 serial 2-fold dilutions, to the assay mixture. The starting concentrations ranged from 200 μM to 1 μM. An IC50 value for the inhibitor, defined as the compound concentration that provides 50% inhibition of polymerase activity, was determined by fitting the cpm data to the Hill equation Y=100/(1+10̂((LogIC50−X)*HillSlope)), where X is the logarithm of compound concentration, and Y is the % inhibition. Ferrari et al., 12th International Symposium on HCV and Related Viruses, P-306 (2005) described in detail this assay procedure. It should be noted that such an assay as described is exemplary and not intended to limit the scope of the invention. The skilled practitioner can appreciate that modifications including but not limited to RNA template, primer, nucleotides, NS5B polymerase form, buffer composition, can be made to develop similar assays that yield the same result for the efficacy of the compounds and compositions described in the invention.
NS5B polymerase inhibition data was calculated for the compounds of the present invention using this method and is set forth in the table below.

| Compound | IC50 [µM] |
| --- | --- |
| CC(C)c1ccc(NC(=O)c2cccnc2)c(N2CCN(c3cnccn3)CC2)c1 [Compound 1] | 3 |
| Cc1ncccc1C(=O)Nc1ccc(C(C)C)cc1N1CCN(c2cnccn2)CC1 [Compound 2] | 0.52 |
| CC(C)c1ccc(NC(=O)c2cccnc2C2CC2)c(N2CCN(c3cnccn3)CC2)c1 [Compound 3] | 2 |
| C=C(C)c1ncccc1C(=O)Nc1ccc(C(C)C)cc1N1CCN(c2cnccn2)CC1 [Compound 4] | > 200 |
| CC(C)c1ccc(NC(=O)c2cccnc2-c2ccccc2)c(N2CCN(c3cnccn3)CC2)c1 [Compound 5] | > 200 |
| CC(C)c1ccc(NC(=O)c2cccnc2F)c(N2CCN(c3cnccn3)CC2)c1 [Compound 6] | 2.2 |
| CC(C)c1ccc(NC(=O)c2cccnc2C(F)(F)F)c(N2CCN(c3cnccn3)CC2)c1 [Compound 7] | 2.3 |
| CC(C)c1ccc(NC(=O)c2cccnc2N)c(N2CCN(c3cnccn3)CC2)c1 [Compound 8] | 1 |
| CC(C)c1ccc(NC(=O)c2cccc(O)n2)c(N2CCN(c3cnccn3)CC2)c1 [Compound 9] | 46 |
| CC(C)c1ccc(NC(=O)c2cccnc2O)c(N2CCN(c3cnccn3)CC2)c1 [Compound 10] | 3 |
| COc1ncccc1C(=O)Nc1ccc(C(C)C)cc1N1CCN(c2cnccn2)CC1 [Compound 11] | > 20 |
| CC(C)c1ccc(NC(=O)c2cccc(F)c2)c(N2CCN(c3cnccn3)CC2)c1 [Compound 12] | 1 |
| Cc1c(F)cccc1C(=O)Nc1ccc(C(C)C)cc1N1CCN(c2cnccn2)CC1 [Compound 13] | 4.1 |
| Cc1c(F)cc(F)cc1C(=O)Nc1ccc(C(C)C)cc1N1CCN(c2cnccn2)CC1 [Compound 14] | 0.54 |
| Cc1c(F)ccc(F)c1C(=O)Nc1ccc(C(C)C)cc1N1CCN(c2cnccn2)CC1 [Compound 15] | 54 |
| Cc1c(F)cc(C(=O)Nc2ccc(C(C)C)cc2N2CCN(c3cnccn3)CC2)cc1F [Compound 16] | 5.6 |
| Cc1ccc(C(=O)Nc2ccc(C(C)C)cc2N2CCN(c3cnccn3)CC2)cn1 [Compound 17] | 14 |
| Cc1cncc(C(=O)Nc2ccc(C(C)C)cc2N2CCN(c3cnccn3)CC2)c1 [Compound 18] | 2.3 |
| CC(C)c1ccc(NC(=O)c2cnc3ccccc3c2)c(N2CCN(c3cnccn3)CC2)c1 [Compound 19] | 6.7 |
| Cc1ncsc1C(=O)Nc1ccc(C(C)C)cc1N1CCN(c2cnccn2)CC1 [Compound 20] | 0.58 |

| Compound | IC50 [µM] |
| --- | --- |
| Cc1nc(Br)sc1C(=O)Nc1ccc(C(C)C)cc1N1CCN(c2cnccn2)CC1 [Compound 21] | 3 |
| Cc1nc(N(C)C)sc1C(=O)Nc1ccc(C(C)C)cc1N1CCN(c2cnccn2)CC1 [Compound 22] | 10 |
| CC(C)c1ccc(NC(=O)c2ccsc2)c(N2CCN(c3cnccn3)CC2)c1 [Compound 23] | 7 |
| CC(C)c1ccc(NC(=O)c2cnc3[nH]ccc3c2)c(N2CCN(c3cnccn3)CC2)c1 [Compound 24] | > 20 |
| CC(C)c1ccc(NC(=O)c2ccc(C(F)(F)F)nc2)c(N2CCN(c3cnccn3)CC2)c1 [Compound 25] | 2.3 |
| CC(C)c1ccc(NC(=O)c2cnccc2C(F)(F)F)c(N2CCN(c3cnccn3)CC2)c1 [Compound 26] | > 20 |
| Cc1oncc1C(=O)Nc1ccc(C(C)C)cc1N1CCN(c2cnccn2)CC1 [Compound 27] | 13 |
| Cc1ncoc1C(=O)Nc1ccc(C(C)C)cc1N1CCN(c2cnccn2)CC1 [Compound 28] | 14 |
| Cc1occc1C(=O)Nc1ccc(C(C)C)cc1N1CCN(c2cnccn2)CC1 [Compound 29] | 15 |
| CC(C)c1ccc(NC(=O)C2CCOCC2)c(N2CCN(c3cnccn3)CC2)c1 [Compound 31] | > 20 |
| CC(C)c1ccc(NC(=O)C2CCCNC2)c(N2CCN(c3cnccn3)CC2)c1 (stereo not drawn) [Compound 32] | > 200 |
| CC(C)c1ccc(NC(=O)c2ccccn2)c(N2CCN(c3cnccn3)CC2)c1 [Compound 33] | > 20 |
| CC(C)c1ccc(NC(=O)c2cncnc2)c(N2CCN(c3cnccn3)CC2)c1 [Compound 34] | > 20 |
| CC(C)c1ccc(NC(=O)c2ccnnc2)c(N2CCN(c3cnccn3)CC2)c1 [Compound 35] | > 20 |
| Cc1cnc(C(=O)Nc2ccc(C(C)C)cc2N2CCN(c3cnccn3)CC2)cn1 [Compound 36] | > 20 |
| CC(C)c1ccc(NC(=O)c2ccnc(NC(=O)C(C)(C)C)c2)c(N2CCN(c3cnccn3)CC2)c1 [Compound 37] | > 20 |
| Cc1nocc1C(=O)Nc1ccc(C(C)C)cc1N1CCN(c2cnccn2)CC1 [Compound 38] | 13 |
| Cc1n[nH]cc1C(=O)Nc1ccc(C(C)C)cc1N1CCN(c2cnccn2)CC1 [Compound 39] | > 200 |
| Cc1cncc(N2CCN(c3cc(C(C)C)ccc3NC(=O)c3cccnc3)CC2)n1 [Compound 40] | 0.5 |
| CC(C)c1ccc(NC(=O)c2cccnc2)c(N2CCN(c3ccncn3)CC2)c1 [Compound 41] | 0.56 |

| Compound | IC50 [µM] |
| --- | --- |
| Cc1nccc(N2CCN(c3cc(C(C)C)ccc3NC(=O)c3cccnc3)CC2)n1 [Compound 42] | 0.16 |
| CC(C)c1ccc(NC(=O)c2cccnc2)c(N2CCN(c3ncccn3)CC2)c1 [Compound 43] | 2.3 |
| Cc1ccnc(N2CCN(c3cc(C(C)C)ccc3NC(=O)c3cccnc3)CC2)n1 [Compound 44] | 1.5 |
| Cc1nccnc1N1CCN(c2cc(C(C)C)ccc2NC(=O)c2cccnc2)CC1 [Compound 45] | 3.9 |
| Cc1cnc(C)c(N2CCN(c3cc(C(C)C)ccc3NC(=O)c3cccnc3)CC2)n1 [Compound 46] | 140 |
| CC(C)c1ccc(NC(=O)c2cccnc2)c(N2CCN(c3nccs3)CC2)c1 [Compound 47] | 2.5 |
| Cc1csc(N2CCN(c3cc(C(C)C)ccc3NC(=O)c3cccnc3)CC2)n1 [Compound 48] | 15 |
| Cc1cnc(N2CCN(c3cc(C(C)C)ccc3NC(=O)c3cccnc3)CC2)s1 [Compound 49] | 3.9 |
| CC(C)c1ccc(NC(=O)c2cccnc2)c(N2CCN(c3ccccn3)CC2)c1 [Compound 51] | 7.3 |
| CC(C)c1ccc(NC(=O)c2cccnc2)c(N2CCN(C(=O)Nc3ccccc3)CC2)c1 [Compound 52] | > 100 |
| CC(C)c1ccc(NC(=O)c2cccnc2)c(N2CCN(C(=O)OC(C)(C)C)CC2)c1 [Compound 53] | > 200 |
| CC(C)c1ccc(NC(=O)c2cccnc2)c(N2CCN(S(C)(=O)=O)CC2)c1 [Compound 54] | > 200 |
| CC(C)c1ccc(NC(=O)c2cccnc2)c(N2CCN(C(=O)CN(C)C)CC2)c1 [Compound 55] | > 200 |
| CNCC(=O)N1CCN(c2cc(C(C)C)ccc2NC(=O)c2cccnc2)CC1 [Compound 56] | > 200 |
| Cc1ncccc1C(=O)Nc1ccc(C(C)C)cc1N1CCN(c2ccncn2)CC1 [Compound 57] | 0.1 |
| CSCc1nccc(N2CCN(c3cc(C(C)C)ccc3NC(=O)c3cccnc3C)CC2)n1 [Compound 58] | 0.027 |
| Cc1ncccc1C(=O)Nc1ccc(C(C)C)cc1N1CCN(c2ncnc3ccsc23)CC1 [Compound 59] | 0.014 |
| Cc1ncccc1C(=O)Nc1ccc(C(C)C)cc1N1CCN(c2ncnc3[nH]ccc23)CC1 [Compound 60] | 0.032 |
| Cc1ncccc1C(=O)Nc1ccc(C(C)C)cc1N1CCN(c2cncc(C3CC3)n2)CC1 [Compound 61] | 1 |
| Cc1ncccc1C(=O)Nc1ccc(C(C)C)cc1N1CCN(c2cncc(-c3ccccc3)n2)CC1 [Compound 62] | 17 |
